Converted amounts (≈) assume the structure as drawn. Where a name gives a salt, the structure may show the parent alone. Read-outs that look alike come from different tables or passages of the source.
Legend:
[1] = test system: bronchospasm by acetylcholine chloride in guinea-pigs; test: Bronchospasm by acetylcholine chloride (0.075 mg/kg i.v.) in guinea-pigs (Konzett and Roesler); type: in vivo, guinea-pig; settings: for ED50: Cavia porcellus, iv
Description: Exp. Path. […] J. Pharmcol. 15, 290. Male guinea-pigs weighing 300-450 g were used under urethane anaesthesia (lg/kg i.p.). The animals were suitably prepared by insertion of a cannula in the jugular vein for intravenous administrations while the trachea was connected to an artificial respiration pump (Palmer) adapted for small animals, which was operated at a frequency of approximately 70 insufflations per minute. The pneumogram was recorded by means of a transducer on a polygraph (Battaglia-Rangoni).

[2] = test system: completely removed guinea-pig tracheas; test: Constrictive action of histamine di-hydrochloride on completely removed guinea-pig tracheas (in vitro); type: cell-based; settings: for IC50: Cavia porcellus, read-out: ED50 (the source's name); for IC50 / ED50: Table I; for IC50 / % inhibition / ED50: histamine di-hydrochloride 5.10^-6 g/ml
Description: Thirty white guinea-pigs were used, from which the tracheas were removed, after they had been killed by ethereal anaesthesia. The tracheas were placed in a 50 ml bath of Krebs solution, suitably oxygenated and thermoregulated at a temperature of 37° C. The lower end of the trachea was closed while the upper end was connected to a polythene tube connected to a transducer for measuring volume differences connected to a polygraph, according to D. Jamieson's method 1962, Brit. J. Pharmacol. and Chemiotherapy, 19, 286, partially modified. Both the trachea and the polythene tube were filled with Krebs solution. The responses of the tracheas thus prepared to acetylcholine and histamine were investigated before and after the addition of the product to the bath.

rabbits = test: Mucolytic activity: mucoproduction in rabbits before and after oral treatment; type: in vivo, rabbit; settings: for Mucoproduction (mg/h) M ± SD 4-0 h (before the treatment): baseline before treatment; for mucolytic activity (in words): rabbits, oral
Description: (b) Mucolytic activity of compound 1, doxophylline and bromohexyne hydrochloride For these tests the method described by Perry, W. F., Boyd, E. M., J. Pharmacol., 1941, 73, 65 and suitably modified by us was used. New Zealand-type, male, white rabbits weighing 2.8-3.5 kg. were used. Pre-operative preparation consisted of treatment with 9 mg/kg i.m. of a non-stupefying central analgesic ([…] local anaesthesia in the tracheal region with xylocaine (0.9 mg/kg - 1% solution). The surgical operation commenced 15-20 minutes after the pharmacological pre-treatment. The trachea was exposed and a hole approximately 5-6 mm in diameter was made in its ventral side. The trachea was then introduced into the lower arm of a three-way polypropylene cannula, which had been cut suitably, longitudinally so as to connect the hole made in the trachea with the aperture of the third arm (vertical) of the cannula, and thus put it into communication with the outside. Thus, the cannula surrounded the outside of the trachea and was fixed "in loco" with sterile surgical silk thread. A polypropylene container was attached to the vertical arm of the cannula for collecting the mucous (capacity approximately 2 ml), and the wound was then sutured. The tracheal mucous was collected for four hours before the oral administration of the substance under test and for four hours after the treatment.

[3] = General statements on side effects, habituation, toxicity and therapeutic index; settings: among compounds (1)-(4)
in vivo = settings: po
Description: The products were administered in a 0.5% aqueous suspension of carboxymethylcellulose at a concentration of 1 ml/100 g of body weight.

[4] = legend of FIG. 2, unit inferred, read-out: ED 50

SMILES: Cn1c(=O)c2[nH]cnc2n(C)c1=O [AMINOPHYLLINE, aminophylline]
- ED50 [1]: 4.97 mg/kg
- ED50 ([1]; read-out: ED50 mg/kg i.v.): 4.97 mg/kg
- % Variation in endobronchial pressure after administration of acetylcholine chloride (0,075 mg/kg i.v.) M ± SE ([1]; dose 0.5 mg/kg i.v.): 158.7 ± 24.6%
- % inhibition vs. controls ([1]; dose 0.5 mg/kg i.v.): -12.5%
- % Variation in endobronchial pressure after administration of acetylcholine chloride (0,075 mg/kg i.v.) M ± SE ([1]; dose 1 mg/kg i.v.): 135.7 ± 21.2%
- % inhibition vs. controls ([1]; dose 1 mg/kg i.v.): -25.2%
- % Variation in endobronchial pressure after administration of acetylcholine chloride (0,075 mg/kg i.v.) M ± SE ([1]; dose 5 mg/kg i.v.): 117.0 ± 17.4%
- % inhibition vs. controls ([1]; dose 5 mg/kg i.v.): -35.5%
- % Variation in endobronchial pressure after administration of acetylcholine chloride (0,075 mg/kg i.v.) M ± SE ([1]; dose 10 mg/kg i.v.): 49.9 ± 10.2%
- % inhibition vs. controls ([1]; dose 10 mg/kg i.v.): -72.5%
- IC50 [2]: 206 µg/mL (≈ 1140 µM)
- % inhibition ([2]; concentration 100 x 10^-6 g/ml): -10.9%
- % inhibition ([2]; concentration 150 x 10^-6 g/ml): -18.7%
- % inhibition ([2]; concentration 200 x 10^-6 g/ml): -46.15%
- % inhibition ([2]; concentration 300 x 10^-6 g/ml): -79.4%

SMILES: CN(Cc1cc(Br)cc(Br)c1N)C1CCCCC1 [BROMOHEXYNE, bromohexyne hydrochloride, reference compound]
- Mucoproduction (mg/h) M ± SD 4-0 h (before the treatment) (rabbits; group dosed 400 mg/kg os): 28.9 ± 7.82 mg/h
- % Variation with respect to its own base (rabbits; dose 400 mg/kg os): +34.98%
- Mucoproduction (mg/h) M ± SD 0-4 h (after the treatment) (rabbits; dose 400 mg/kg os): 39.01 ± 4.34 mg/h

SMILES: Cn1c(=O)c2c(ncn2CC2SCCS2)n(C)c1=O [COMPOUND 1, 7-[2'-(1',3'-dithiolanyl)-methyl]-theophylline]
- ED50 ([1]; Table II, i.v., read-out: ED50 mg/kg i.v.): 0.99 mg/kg
- ED50 [1, 4]: 0.996 mg/kg
- % Variation in endobronchial pressure after administration of acetylcholine chloride (0,075 mg/kg i.v.) M ± SE ([1]; dose 0.1 mg/kg i.v.): 166.0 ± 22.4%
- % inhibition vs. controls ([1]; dose 0.1 mg/kg i.v.): -8.5%
- % Variation in endobronchial pressure after administration of acetylcholine chloride (0,075 mg/kg i.v.) M ± SE ([1]; dose 0.5 mg/kg i.v.): 145.1 ± 18.7%
- % inhibition vs. controls ([1]; dose 0.5 mg/kg i.v.): -20.0%
- % Variation in endobronchial pressure after administration of acetylcholine chloride (0,075 mg/kg i.v.) M ± SE ([1]; dose 1 mg/kg i.v.): 87.1 ± 15.2%
- % inhibition vs. controls ([1]; dose 1 mg/kg i.v.): -52.0%
- % Variation in endobronchial pressure after administration of acetylcholine chloride (0,075 mg/kg i.v.) M ± SE ([1]; dose 2 mg/kg i.v.): 51.7 ± 6.5%
- % inhibition vs. controls ([1]; dose 2 mg/kg i.v.): -71.5%
- antibronchospastic effect relative to aminophylline ([1]; from Table II): approximately five times that of aminophylline
- antibronchospastic effect relative to doxophylline ([1]; from Table II): approximately twice that of doxophylline
- Mucoproduction (mg/h) M ± SD 4-0 h (before the treatment) (rabbits; group dosed 10 mg/kg os): 30.6 ± 9.43 mg/h
- Mucoproduction (mg/h) M ± SD 4-0 h (before the treatment) (rabbits; group dosed 30 mg/kg os): 27.2 ± 5.22 mg/h
- Mucoproduction (mg/h) M ± SD 4-0 h (before the treatment) (rabbits; group dosed 100 mg/kg os): 29.7 ± 4.95 mg/h
- mucolytic activity compared with bromohexyne hydrochloride (rabbits; compound at 100 mg/kg vs bromohexyne hydrochloride at 400 mg/kg): more active than bromohexyne hydrochloride at a dose of 400 mg/kg
- % Variation with respect to its own base (rabbits; dose 10 mg/kg os): +13.95%
- Mucoproduction (mg/h) M ± SD 0-4 h (after the treatment) (rabbits; dose 10 mg/kg os): 34.87 ± 10.25 mg/h
- % Variation with respect to its own base (rabbits; dose 30 mg/kg os): +26.95%
- Mucoproduction (mg/h) M ± SD 0-4 h (after the treatment) (rabbits; dose 30 mg/kg os): 34.53 ± 4.16 mg/h
- % Variation with respect to its own base (rabbits; dose 100 mg/kg os): +57.27%
- Mucoproduction (mg/h) M ± SD 0-4 h (after the treatment) (rabbits; dose 100 mg/kg os): 46.71 ± 8.82 mg/h
- mucolytic activity (in words) (rabbits): dose-related mucolytic activity
- therapeutic index (in words) [3]: most favourable therapeutic index
- IC50 [2]: 126 µg/mL (≈ 423 µM)
- % inhibition ([2]; concentration 50 x 10^-6 g/ml): -17.2%
- % inhibition ([2]; concentration 100 x 10^-6 g/ml): -32.5%
- % inhibition ([2]; concentration 200 x 10^-6 g/ml): -62.5%
- % inhibition ([2]; concentration 300 x 10^-6 g/ml): -95.0%
- activity in vitro, ranking among the compounds ([2]; on the basis of the results obtained in vitro): the most active
- LD50 at 480 h (in vivo; mouse): 1510 mg/kg
- LD50 at 480 h (in vivo; rat): 1840 mg/kg

SMILES: Cn1c(=O)c2c(ncn2CC2SCCCS2)n(C)c1=O [COMPOUND 2, 7-[2'-(1',3'-dithianyl)-methyl]-theophylline]
- IC50 [2]: 837 µg/mL (≈ 2680 µM)
- % inhibition ([2]; concentration 100 x 10^-6 g/ml): -12.0%
- % inhibition ([2]; concentration 200 x 10^-6 g/ml): -18.5%
- % inhibition ([2]; concentration 250 x 10^-6 g/ml): -26.5%
- % inhibition ([2]; concentration 400 x 10^-6 g/ml): -38.5%

SMILES: Cn1c(=O)c2c(ncn2CC2SCC[S+]2[O-])n(C)c1=O (centres unmarked) [COMPOUND 3, 7-[2'-(1',3'-dithiolanyl)-methyl]-theophylline sulphoxide]
- ED50 [2]: 530.0 10^-6 g/ml
- % inhibition ([2]; concentration 100 x 10^-6 g/ml): -14.5%
- % inhibition ([2]; concentration 200 x 10^-6 g/ml): -21.5%
- % inhibition ([2]; concentration 300 x 10^-6 g/ml): -35.4%
- % inhibition ([2]; concentration 400 x 10^-6 g/ml): -47.5%

SMILES: Cn1c(=O)c2c(ncn2CC2SCC[S+]2[O-])n(C)c1=O (centres unmarked) [COMPOUND 4, 7-[2'-(1',3'-dithiolanyl)-methyl]-theophylline sulphoxide]
- ED50 [2]: 2241.8 10^-6 g/ml
- % inhibition ([2]; concentration 100 x 10^-6 g/ml): -7.5%
- % inhibition ([2]; concentration 200 x 10^-6 g/ml): -12.5%
- % inhibition ([2]; concentration 300 x 10^-6 g/ml): -20.4%
- % inhibition ([2]; concentration 400 x 10^-6 g/ml): -27.8%

SMILES: Cn1c(=O)c2c(ncn2CC2OCCO2)n(C)c1=O [DOXOPHYLLINE, 7-[2'-(1',3'-dioxolanyl)-methyl]-theophylline, reference compound]
- ED50 [1, 4]: 2.02 mg/kg
- % Variation in endobronchial pressure after administration of acetylcholine chloride (0,075 mg/kg i.v.) M ± SE ([1]; dose 0.5 mg/kg i.v.): 153.8 ± 18.4%
- % inhibition vs. controls ([1]; dose 0.5 mg/kg i.v.): -15.2%
- % Variation in endobronchial pressure after administration of acetylcholine chloride (0,075 mg/kg i.v.) M ± SE ([1]; dose 1 mg/kg i.v.): 133.3 ± 14.8%
- % inhibition vs. controls ([1]; dose 1 mg/kg i.v.): -26.5%
- % Variation in endobronchial pressure after administration of acetylcholine chloride (0,075 mg/kg i.v.) M ± SE ([1]; dose 2 mg/kg i.v.): 88.5 ± 11.3%
- % inhibition vs. controls ([1]; dose 2 mg/kg i.v.): -51.2%
- % Variation in endobronchial pressure after administration of acetylcholine chloride (0,075 mg/kg i.v.) M ± SE ([1]; dose 4 mg/kg i.v.): 56.4 ± 8.8%
- % inhibition vs. controls ([1]; dose 4 mg/kg i.v.): -68.9%
- Mucoproduction (mg/h) M ± SD 4-0 h (before the treatment) (rabbits; group dosed 100 mg/kg os): 29.8 ± 5.80 mg/h
- % Variation with respect to its own base (rabbits; dose 100 mg/kg os): +7.71%
- Mucoproduction (mg/h) M ± SD 0-4 h (after the treatment) (rabbits; dose 100 mg/kg os): 32.10 ± 8.26 mg/h
- mucolytic activity (in words) (rabbits): no mucolytic activity
- IC50 [2]: 175 µg/mL (≈ 657 µM)
- % inhibition ([2]; concentration 40 x 10^-6 g/ml): 0%
- % inhibition ([2]; concentration 200 x 10^-6 g/ml): -54%
- % inhibition ([2]; concentration 400 x 10^-6 g/ml): -78%
- % inhibition ([2]; concentration 800 x 10^-6 g/ml): -100%

SMILES: CC(=O)N[C@@H](CS)C(=O)O [N--acetylcysteine, reference compound]
- Mucoproduction (mg/h) M ± SD 4-0 h (before the treatment) (rabbits; group dosed 400 mg/kg os): 27.7 ± 5.50 mg/h
- % Variation with respect to its own base (rabbits; dose 400 mg/kg os): +16.21%
- Mucoproduction (mg/h) M ± SD 0-4 h (after the treatment) (rabbits; dose 400 mg/kg os): 32.19 ± 3.89 mg/h

From patent US4868186A, “Theophyllinemethyldithiolan and theophyllinemethyldithianyl derivatives having antibronchospastic antitussive and mucolytic activity” (Istituto Biologico Chemioterapico ABC S.p.A., priority 1986, dated 1989)
